These results are taken from patent US9089499B2, “Para-coumaric acid or para-hydroxycinnamic acid derivatives and their use in cosmetic or dermatological compositions” (BASF Beauty Care Solutions France S.A.S., priority 2005, dated 2015).

Series [1] deals with T1, Human tyrosinase (Homo sapiens, UniProt P14679).
T1 construct: endogenous in cells; host or cells: normal human melanocytes (abdominal surgery; several donors of fair, brown and black phototypes)
T1 sequence (P14679 19-529): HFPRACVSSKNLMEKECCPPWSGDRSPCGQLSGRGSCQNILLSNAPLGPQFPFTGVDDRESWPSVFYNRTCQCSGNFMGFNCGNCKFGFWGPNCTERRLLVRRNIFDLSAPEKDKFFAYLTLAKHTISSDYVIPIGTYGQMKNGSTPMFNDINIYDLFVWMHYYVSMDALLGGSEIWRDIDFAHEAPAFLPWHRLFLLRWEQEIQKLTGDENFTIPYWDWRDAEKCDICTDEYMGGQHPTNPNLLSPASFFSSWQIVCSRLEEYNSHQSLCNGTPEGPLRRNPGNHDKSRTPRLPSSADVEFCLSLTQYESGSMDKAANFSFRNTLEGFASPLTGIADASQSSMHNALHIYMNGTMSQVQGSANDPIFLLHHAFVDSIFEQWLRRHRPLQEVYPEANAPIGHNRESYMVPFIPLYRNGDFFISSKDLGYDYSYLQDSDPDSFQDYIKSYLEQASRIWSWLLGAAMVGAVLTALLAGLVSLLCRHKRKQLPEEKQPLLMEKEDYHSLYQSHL
The experiment in a line: In vitro test of inhibition of human tyrosinase from melanocyte extracts (L-dopa/MBTH, OD 490 nm). Format: biochemical. Particulars: melanocyte extract; for inhibition at 100 µM: 10^−4M, read-out: Inhibition of human tyrosinase, percentage of inhibition, Mean 10^−4M; for inhibition at 10 µM: 10^−5M, read-out: Inhibition of human tyrosinase, percentage of inhibition, Mean 10^−5M. As to the method: Human tyrosinase, obtained from melanocyte extracts obtained from healthy donors, catalyses the formation of L-dopaquinone from L-dopa. Now, the L-dopaquinone may be quantified by visible spectrophotometry at 490 nm by means of a chromogen: 3-methyl-2-benzothiazolinone hydrazone (MBTH).
The melanocyte extract is obtained after lysis of cell membranes of the normal human melanocytes, performed via a thermal shock. The supernatant is recovered and then incubated with MBTH (Sigma) and L-dopa (Sigma). […]

Series [2] is described as follows: Antiradical activity, acellular DPPH model. Particulars: DPPH 30 minutes, absorbance 520 nm. As to the method: The antiradical activity of the derivatives derived from the syntheses described above was evaluated in an in vitro acellular model using DPPH.
1,1-Diphenyl 2-picryihydrazyl, on account of its paramagnetic structure, can accept an electron or a hydrogen radical to become a stable diamagnetic molecule. This free radical, which is purple coloured in ethanol, has a strong absorption band at 520 nm.
The addition of a compound that provides electrons results in a decolorization of the 1,1-diphenyl 2-picrylhydrazyl that is proportional to the number of electrons taken up by the radical, which may be monitored by measuring the absorbance at 520 nm.
DPPH is incubated for 30 minutes in the presence of the derivatives described above, tested at a concentration of 10^−5M, or alone for the control. At the end of the incubation, the antiradical activity of the above derivatives is evaluated by measuring the absorbance of the solution at 520 nm.
The antiradical activity of each test product is calculated according to the formula, as a percentage: 100−((OD520 in the presence of the test compound/OD520 in the absence of compound)×100)

In series [3] the target is T1, Human tyrosinase. The series can be described thus: Inhibition of human tyrosinase after 24 h application to normal human melanocytes in monolayer. Particulars: for inhibition at 1000 µM: 10^−3 M. Format: cell-based. As to the method: Normal human melanocytes (obtained from abdominal surgery) are seeded in 24-well plates at a rate of 80 000 cells per well. They are cultured to confluence and the active agents are applied for 24 hours to the culture media. After 24 hours, the media are removed and the melanocytes are detached via mechanical action. An extraction is performed via a thermal shock and the supernatants are then recovered and incubated with MBTH (Sigma) and L-dopa (Sigma). The OD at 490 nm is measured after 30 minutes, and the tyrosinase inhibition is calculated by relating the OD at 490 nm to the protein content (measured in each culture well) of the test relative to the ratio: OD 490 nm/protein concentration of the negative control (untreated control).
The compounds derived from the examples mentioned above were tested on melanocytes derived from various donors but of fair phototype, according to the protocol described in Example 29. The donors tested are as follows: • donor S (donor tested in Example 12): • donor 1: • donor 2: • donor 3
The compound derived from Example 1 is tested on cultures of melanocytes obtained from 2 donors of brown phototype and from one donor of black phototype. The protocol applied is that described in Example 29. […]

The test system of series [4] is fungal tyrosinase. The experiment in a line: In vitro test of inhibition of isolated fungal tyrosinase (L-dopa, dopachrome OD 490 nm). Format: biochemical. Particulars: 490 nm. The source says: Tyrosinase catalyses the formation of L-dopaquinone and then of dopachrome from L-dopa. Now, dopachrome is a coloured compound that may be quantified by visible spectrophotometry at 490 nm. The use of an active agent capable of modifying the enzymatic activity will be reflected by a variation in the optical density at 490 nm. The to ratio of the rates of formation of dopachrome makes it possible to determine precisely the activations or inhibitions obtained with the various test molecules.
The sample to be tested is incubated in the presence of fungal tyrosinase (Sigma), for 5 minutes with stirring. L-Dopa (Sigma), a tyrosinase substrate, is incubated for 10 minutes in the absence of light, in the presence or absence of the test molecules. The calculation of the percentage of inhibition is performed by relating the test OD to the OD of the negative control without molecule.
In the context of this in vitro test, the p-coumaric acid derivatives were tested at final concentrations of 10^−4M and 10^−5M.

The test system of series [5] is normal human melanocytes. The series can be described thus: Cytotoxicity on normal human melanocytes, PNPP assay. Format: cell-based. Particulars: 24 hours, relative to untreated wells. As to the method:
The cytotoxicity of the active agents is studied on normal human melanocytes in 24-well plates, via assay with PNPP (P-nitrophenyl phosphate), this substance being converted into p-nitrophenol via the intracellular acid phosphatases of viable cells. The absorbance of p-nitrophenol at 405 nm is directly proportional to the number of viable cells.
The active agents are tested at 2 different concentrations (10^−4 M and 10^−5 M) and added to the culture medium and incubated at 37° C. for 24 hours. The assay with PNPP is performed on the cell lawn and the results are expressed as a percentage of viability relative to the negative control (untreated wells).

Setting [6] is: 10^−4M, 24 hours, read-out: Inhibition of human tyrosinase after application to normal human melanocytes, percentage of inhibition, Mean 10^−4M.
The mark [7] stands for this setting: 10^−5M, 24 hours, read-out: Inhibition of human tyrosinase after application to normal human melanocytes, percentage of inhibition, Mean 10^−5M.
Where [8] appears, read: Donor 1, fair phototype, 10^−4 M, read-out: Inhibition of tyrosinase, Mean 10^−4 M, Donor 1.
[9] abbreviates: Donor 1, fair phototype, 10^−5 M, read-out: Inhibition of tyrosinase, Mean 10^−5 M, Donor 1.
Where [10] appears, read: Donor 2, fair phototype, 10^−4 M, read-out: Inhibition of tyrosinase, Mean 10^−4 M, Donor 2.
The mark [11] stands for this setting: Donor 2, fair phototype, 10^−5 M, read-out: Inhibition of tyrosinase, Mean 10^−5 M, Donor 2.
Where [12] appears, read: Donor 3, fair phototype, 10^−4 M, read-out: Inhibition of tyrosinase, Mean 10^−4 M, Donor 3.
The mark [13] stands for this setting: Donor 3, fair phototype, 10^−5 M, read-out: Inhibition of tyrosinase, Mean 10^−5 M, Donor 3.
Where [14] appears, read: Donor S, fair phototype, 10^−4 M, read-out: Inhibition of tyrosinase, Mean 10^−4 M, Donor S.
The mark [15] stands for this setting: Donor S, fair phototype, 10^−5 M, read-out: Inhibition of tyrosinase, Mean 10^−5 M, Donor S.

Read-outs that look alike come from different tables or passages of the source.

For the compound `O=C(/C=C/c1ccc(O)c(O)c1)NCCc1ccc(O)c(O)c1` [Example 10, N-trans-caffeoyldopamine], the inhibition at 100 µM amounted to 9.91% in series [1]; 66.8% in series [3] (setting [6]); 44.6% in series [3] (setting [8]); 0% in series [3] (setting [10]); 14.4% in series [3] (setting [12]); 66.8% in series [3] (setting [14]). Also, the inhibition at 10 µM in series [1] came out at 11.4%; in series [3] (setting [7]), 0%; in series [3] (setting [9]) it was 0%; in series [3] (setting [11]), 0.15%; in series [3] (setting [13]), 3.32%; in series [3] (setting [15]), 0%. Moreover, the “Antiradical activity, Mean 10^−5 M” value in series [2] worked out at 57.45%. Further, the “Inhibition of fungal tyrosinase, percentage of inhibition, Mean 10^−4M” value in series [4] is 16.23%. For the same compound, the “Inhibition of fungal tyrosinase, percentage of inhibition, Mean 10^−5M” value in series [4] was 14.72%. Besides, in series [5], the “Percentages of viability, Mean 10^−4 M” value is recorded as 84.62%. Also, in series [5], the “Percentages of viability, Mean 10^−5 M” value is listed as 102.1%.
On to `COc1cc(/C=C/C(=O)NCc2ccc(O)c(OC)c2)ccc1O` [Example 4, N-trans-feruloyl-4-hydroxy-3-methoxyphenylmethylamine], for which, in series [1], the inhibition at 100 µM was found to be 6.42% and the inhibition at 10 µM amounted to 4.92%. Also, the “Antiradical activity, Mean 10^−5 M” value in series [2] turned out to be 15.72%. Further, the inhibition at 100 µM in series [3] (setting [6]) was 39.8%. Further, the inhibition at 10 µM in series [3] (setting [7]) was determined as 15.8%. In series [4], the “Inhibition of fungal tyrosinase, percentage of inhibition, Mean 10^−4M” value was 1.35% and the “Inhibition of fungal tyrosinase, percentage of inhibition, Mean 10^−5M” value is given as 0%. For the same compound, in series [5], the “Percentages of viability, Mean 10^−4 M” value is given as 101.94% and the “Percentages of viability, Mean 10^−5 M” value is given as 99.55%.
For the compound `COc1cc(/C=C/C(=O)NCCc2ccc(O)cc2)ccc1O` [Example 3, N-trans-feruloyltyramine], the inhibition at 100 µM in series [1] worked out at 0%; in series [3] (setting [6]), 49.6%; in series [3] (B104, Donor B, brown phototype, 10^−4 M, read-out: Inhibition of tyrosinase, Mean Donor B, 10^−4 M), 30.5%; in series [3] (setting [8]), 44.8%; in series [3] (setting [10]), 10.7%; in series [3] (setting [12]), 57.9%. Besides, the inhibition at 100 µM in series [3] (Donor A, brown phototype, 10^−4 M, read-out: Inhibition of tyrosinase, Mean Donor A, 10^−4 M) came to 40.4%; in series [3] (setting [14]), 49.6%; in series [3] (donor of black phototype, 10^−4 M, read-out: Inhibition, Mean Negroid skin, 10^−4 M) it was 44.5%. The inhibition at 10 µM was determined as 7.56% in series [1]; 33.1% in series [3] (setting [7]); 0% in series [3] (setting [9]); 0% in series [3] (setting [11]); 42.5% in series [3] (setting [13]); 15.6% in series [3] (Donor A, brown phototype, 10^−5 M, read-out: Inhibition of tyrosinase, Mean Donor A, 10^−5 M). Further, the inhibition at 10 µM in series [3] (Donor B, brown phototype, 10^−5 M, read-out: Inhibition of tyrosinase, Mean Donor B, 10^−5 M) turned out to be 16.7%; in series [3] (setting [15]), 33.1%; in series [3] (donor of black phototype, 10^−5 M, read-out: Inhibition, Mean Negroid skin, 10^−5 M) it was 21.9%. Moreover, the “Antiradical activity, Mean 10^−5 M” value in series [2] amounted to 13.73%. Also, the inhibition at 1000 µM in series [3] (B103, Donor B, brown phototype, read-out: Inhibition of tyrosinase, Mean Donor B, 10^−3 M) amounted to 87.4%; in series [3] (Donor A, brown phototype, read-out: Inhibition of tyrosinase, Mean Donor A, 10^−3 M), 85.6%. Also, the “Inhibition of fungal tyrosinase, percentage of inhibition, Mean 10^−4M” value in series [4] was found to be 29.41%. In addition, the “Inhibition of fungal tyrosinase, percentage of inhibition, Mean 10^−5M” value in series [4] came out at 10.16%. Further, in series [5], the “Percentages of viability, Mean 10^−4 M” value worked out at 102.55%. Besides, the “Percentages of viability, Mean 10^−5 M” value in series [5] came out at 111.54%.
